Reference: paper PMC8393492, “Linking the Phytochemicals and the α-Glucosidase and α-Amylase Enzyme Inhibitory Effects of Nigella sativa Seed Extracts” (Foods, 2021)
Blank lines part the entries; values can stand above or below the compound they belong to.

Assays:
pancreatic α-amylase = target: T1, pancreatic α-amylase (Sus scrofa, UniProt P00690); test: In vitro pancreatic α-amylase inhibitory assay (starch substrate, DNSA); settings: for Inhibition Type: Lineweaver–Burk plots, inhibitor 50 µM (acarbose 5 µM); for Vmax: enzyme Vmax in presence of inhibitor 50 µM (acarbose 5 µM), control 29.6 ± 0.8
T1 sequence (P00690 16-511): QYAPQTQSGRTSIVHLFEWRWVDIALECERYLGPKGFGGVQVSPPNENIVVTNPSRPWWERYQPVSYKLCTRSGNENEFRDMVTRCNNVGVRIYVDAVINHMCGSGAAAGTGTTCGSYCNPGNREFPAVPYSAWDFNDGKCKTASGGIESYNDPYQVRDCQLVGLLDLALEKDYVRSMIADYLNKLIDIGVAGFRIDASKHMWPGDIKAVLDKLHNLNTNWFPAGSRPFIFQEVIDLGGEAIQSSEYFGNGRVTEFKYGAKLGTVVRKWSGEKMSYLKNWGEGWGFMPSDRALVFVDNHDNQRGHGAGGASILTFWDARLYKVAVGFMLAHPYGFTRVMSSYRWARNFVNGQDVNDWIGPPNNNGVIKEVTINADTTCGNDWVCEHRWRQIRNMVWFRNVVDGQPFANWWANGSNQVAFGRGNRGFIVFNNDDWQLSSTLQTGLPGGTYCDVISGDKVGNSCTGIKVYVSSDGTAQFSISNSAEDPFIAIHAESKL
Method: The inhibition of pancreatic α-amylase activity by N. sativa seed extracts and fractions was studied according to the procedure described by Daoudi et al. [29]. […] The mixtures were pre-incubated at 37 °C for 10 min. Then, 200 μL of starch (1% (w/v)) dissolved in phosphate buffer was added to each tube and were incubated for 20 min at 37 °C. To stop the enzymatic reaction 600 μL of DNSA color reagent was added. Hereafter, the tubes were incubated for 8 min at 100 °C, before being put in an ice-cold-water bath for a few minutes. The mixture was diluted by adding 1 mL of distilled water and the absorbance was measured at 540 nm. Inhibition percentage was calculated using the formula bellows:Inhibitory activity percentage= ((AControl 540 nm − ATest 540 nm)/AControl 540 nm) × 100(2)
Lineweaver–Burk double reciprocal representation (plotting 1/velocity vs 1/substrate concentration) was used to assess inhibition mode, and kinetic parameters Km and Vmax were determined using the Michaelis-Menten equation.
Secondary plots were used to establish the inhibition constants Ki (slope of the Lineweaver–Burk double reciprocal representation vs inhibitor concentration and intercept of the Lineweaver–Burk double reciprocal representation vs inhibitor concentration).

intestinal α-glucosidase = intestinal α-glucosidase (Rattus norvegicus, UniProt P23739); test: In vitro intestinal α-glucosidase inhibitory assay (sucrose substrate, glucose release); assay type: biochemical; settings: for Inhibition Type: Lineweaver–Burk plots, inhibitor 50 µM (acarbose 5 µM); for Vmax: enzyme Vmax in presence of inhibitor 50 µM (acarbose 5 µM), control 14.1 ± 0.7
Method: The effect of the N. sativa seed extracts and fractions against intestinal α-glucosidase activity was quantified colorimetrically by monitoring the glucose release from sucrose degradation, according to the protocol described by Ouassou et al.. The assay mixtures contained 100 µL of sucrose (50 Mm), 1000 μL of phosphate- buffer (50 mM; pH = 7.5), and 100 μL of intestinal α-glucosidase enzyme solution (10 IU). […] Then, tubes were incubated at 37 °C in a water bath for 25 min. The mixture was heated at 100 °C for 5 min to stop the enzymatic reaction, and the release of glucose was estimated by the glucose oxidase method using a commercially available auto-kit. The absorbance was measured at 500 nm, and the inhibition percentage was calculated using the below formula:Inhibitory activity percentage = ((Acontrol 500 nm − ATest 500 nm)/Acontrol 500 nm) × 100(1)
The assays were conducted as described above. […] The experiments were repeated three times.

[1] = extraction solvent; source not given; cited from earlier work

intestinal α-glucosidase, sequence (P23739 whole entry): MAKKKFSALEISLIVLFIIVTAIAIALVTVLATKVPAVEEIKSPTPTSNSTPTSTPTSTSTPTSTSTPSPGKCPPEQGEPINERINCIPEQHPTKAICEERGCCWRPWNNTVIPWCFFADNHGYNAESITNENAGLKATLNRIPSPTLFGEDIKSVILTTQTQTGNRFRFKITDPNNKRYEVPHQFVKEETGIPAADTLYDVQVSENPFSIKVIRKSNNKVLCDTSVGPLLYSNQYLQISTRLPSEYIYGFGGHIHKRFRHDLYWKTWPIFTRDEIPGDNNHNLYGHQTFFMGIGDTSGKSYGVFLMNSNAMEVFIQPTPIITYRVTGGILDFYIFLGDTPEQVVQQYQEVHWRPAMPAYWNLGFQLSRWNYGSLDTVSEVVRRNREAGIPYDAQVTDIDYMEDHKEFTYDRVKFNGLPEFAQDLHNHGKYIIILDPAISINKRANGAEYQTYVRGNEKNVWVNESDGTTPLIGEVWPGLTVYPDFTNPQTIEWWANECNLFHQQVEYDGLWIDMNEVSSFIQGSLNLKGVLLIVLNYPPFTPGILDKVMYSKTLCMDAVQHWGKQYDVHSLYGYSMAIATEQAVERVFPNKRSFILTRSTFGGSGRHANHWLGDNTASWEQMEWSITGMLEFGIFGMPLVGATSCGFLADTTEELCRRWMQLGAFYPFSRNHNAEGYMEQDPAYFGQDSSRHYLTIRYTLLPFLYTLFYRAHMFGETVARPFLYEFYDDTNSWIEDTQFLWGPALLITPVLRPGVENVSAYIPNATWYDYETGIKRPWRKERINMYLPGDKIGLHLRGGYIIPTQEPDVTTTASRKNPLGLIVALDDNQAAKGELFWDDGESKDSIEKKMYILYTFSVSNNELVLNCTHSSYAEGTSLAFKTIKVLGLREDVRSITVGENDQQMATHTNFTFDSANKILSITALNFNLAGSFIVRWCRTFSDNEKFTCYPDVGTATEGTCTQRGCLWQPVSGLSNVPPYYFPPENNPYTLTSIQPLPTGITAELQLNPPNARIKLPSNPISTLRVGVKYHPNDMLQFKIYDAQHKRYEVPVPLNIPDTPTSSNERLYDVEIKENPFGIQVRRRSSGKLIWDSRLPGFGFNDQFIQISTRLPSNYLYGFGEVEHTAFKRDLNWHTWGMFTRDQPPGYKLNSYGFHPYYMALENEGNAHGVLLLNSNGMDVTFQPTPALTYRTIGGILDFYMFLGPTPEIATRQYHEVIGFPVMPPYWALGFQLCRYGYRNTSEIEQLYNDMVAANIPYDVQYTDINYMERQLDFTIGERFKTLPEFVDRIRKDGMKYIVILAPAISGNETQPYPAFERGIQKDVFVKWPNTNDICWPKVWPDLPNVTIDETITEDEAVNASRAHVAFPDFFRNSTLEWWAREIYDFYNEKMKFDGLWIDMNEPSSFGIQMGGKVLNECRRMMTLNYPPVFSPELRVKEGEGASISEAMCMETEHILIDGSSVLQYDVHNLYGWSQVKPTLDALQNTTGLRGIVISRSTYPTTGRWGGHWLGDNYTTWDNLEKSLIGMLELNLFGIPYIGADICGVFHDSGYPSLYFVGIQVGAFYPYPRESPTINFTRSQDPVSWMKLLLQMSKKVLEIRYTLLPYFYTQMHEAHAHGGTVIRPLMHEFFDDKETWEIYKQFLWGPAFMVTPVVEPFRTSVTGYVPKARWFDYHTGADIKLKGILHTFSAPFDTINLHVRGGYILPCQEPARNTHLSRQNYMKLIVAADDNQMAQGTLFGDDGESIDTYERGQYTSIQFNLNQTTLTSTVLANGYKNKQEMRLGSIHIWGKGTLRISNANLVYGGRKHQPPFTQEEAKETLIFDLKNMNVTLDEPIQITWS

SMILES: O=C(O)c1cc(O)c(O)c(O)c1 [Gallic acid, gallic acid]
- IC50 (pancreatic α-amylase): 27.8 ± 2.06 µM
- Inhibition Type (pancreatic α-amylase): Competitive
- Vmax (pancreatic α-amylase): 76.9 ± 1.4 µM/min
- Inhibition Type (intestinal α-glucosidase): Noncompetitive
- Vmax (intestinal α-glucosidase): 14.7 ± 1.2 µM/min

SMILES: CC1=CC(=O)C(C(C)C)=CC1=O [thymoquinone]
- inhibition of intestinal α-glucosidase (in words) (intestinal α-glucosidase; under the evaluated concentration range (50 µM in kinetics), data not shown): not active

SMILES: C[C@H]1O[C@H](O[C@H]2[C@H](O)[C@@H](O)[C@@H](O[C@H]3[C@H](O)[C@@H](O)C(O)O[C@@H]3CO)O[C@@H]2CO)[C@H](O)[C@@H](O)[C@@H]1N[C@H]1C=C(CO)[C@@H](O)[C@H](O)[C@H]1O (stereo partly shown) [Acarbose, acarbose, reference compound]
- Inhibition Type (pancreatic α-amylase): Competitive
- Vmax (pancreatic α-amylase): 53.8 ± 1.1 µM/min
- Inhibition of pancreatic α-amylase activity (pancreatic α-amylase; positive control at 5 µM (3.22 µg/mL)): 65.6 ± 4.1%
- Inhibition Type (intestinal α-glucosidase): Competitive
- Vmax (intestinal α-glucosidase): 23.9 ± 0.5 µM/min
- inhibition at 50 µM (intestinal α-glucosidase; read-out: Inhibition of intestinal α-glucosidase activity): 89.2 ± 0.5%

SMILES: Oc1cc(O)c2c(c1)O[C@@H](c1ccc(O)c(O)c1)[C@H](O)C2 [(−)-Catechin, (−)-catechin]
- Inhibition Type (intestinal α-glucosidase): Noncompetitive
- Vmax (intestinal α-glucosidase): 13.1 ± 0.9 µM/min
- fractional inhibition concentration (FIC) (intestinal α-glucosidase; mixed with acarbose, FIC = IC50 in combination with acarbose/IC50 alone, synergistic effect): 0.16

SMILES: CC(C)=O [Acetone]
- logP [1]: −0.16

- Inhibition Type (pancreatic α-amylase): Competitive
- fractional inhibition concentration (FIC) (pancreatic α-amylase; combined with acarbose, possible additive effect): 0.74
- Vmax (pancreatic α-amylase): 90.1 ± 0.7 µM/min
SMILES: O=c1cc(-c2ccc(O)cc2)oc2cc(O)cc(O)c12 [Apigenin, apigenin]
